Data set [1] is described as follows: Critical micelle concentration (CMC) assay. Format: physicochemical. As to conditions: threshold concentration of micelle formation in 200 mM NaCl or FP buffer. The procedure: Critical micelle concentration was determined based on the incorporation of fluorescent 1,6-diphenyl-1,3,5-hexatriene (DPH) into micelles (Chattopadhyay and London, 1984). Small molecules and positive controls (neutral detergent Triton X100 and anionic detergent SDS) were cascade diluted in low binding 96-well plates from 1000 μM to 0.1 μM. Dilutions were performed in 200 mM NaCl or FP buffer. DPH was supplemented at 5 μM into black 384-well plates. Fluoresence intensity (λexc=360 nm, λem=430 nm) was measured following a 30-min incubation at room temperature, to graphically estimate CMC transition.

For data set [2], the system named is SOX binding site consensus DNA. In words: Direct DNA-binding assay (SPR), consensus DNA. As to conditions: biotinylated double-strand DNA on streptavidin chip. The procedure: (§1) Compounds were tested at a 1% v/v DMSO in HBS-EP buffer (10 mM HEPES, 150 mM NaCl, 3 mM EDTA, 0.005% v/v polysorbate 20, pH 7.4). The same buffer supplemented with 1% v/v DMSO was used as a mobile phase. DNA minor groove binder DAPI (4′,6-diamidino-2-phenylindole), DNA intercalator and minor groove binder actinomycin D, and DNA intercalator ethidium bromide were used as positive controls. Biotinylated (one tag per probe) double strand DNA probes were prepared using a standard annealing routine (5 min at 100° C., room temperature overnight and stored at −20° C.) of single strand anti-parallel DNA Probes purchased from Geneworks and were immobilized on CM5-SA streptavidin chips as per manufacturer's recommendations. […] All sample and control cycles were performed in triplicate. DMSO calibration was performed as per manufacturer's recommendations. After each injection, an extra flow system wash was performed with 50% v/v DMSO to avoid carryover. Experiments were run on a Biacore T200 (GE Healthcare, USA), with one flow cell kept as a reference.
(§2) From a molecular viewpoint, an inhibitor of SOX18-DNA binding could act either by interacting directly with the DNA, or the protein, or at the interface between protein and DNA. Binding of small molecules directly to the DNA, even though reported for other TFs (Leung et al., 2013), has the potential for unspecific DNA binding, leading to possible genotoxicity, mutagenicity, or carcinogenicity. For this reason, we developed a direct binding assays to determine whether the active compounds interact directly with DNA or protein. A surface plasmon resonance-based method was developed to analyse the binding of small molecules to biotinylated double stranded DNA immobilized on the surface of a streptavidin chip. The method measures the rate of binding (kon), dissociation (koff) and binding constant (KD), and was used to measure the binding to two different DNA sequences: SOX binding site consensus DNA, and scrambled DNA. Intercalating agents ethidium bromide and Actinomycin D, and the minor groove-binding agent 4′,6-diamino-2-phenylindole (DAPI) were used as positive controls for unselective DNA binding.

The subject of data set [3] is scrambled DNA. In words: Direct DNA-binding assay (SPR), scrambled DNA. As to conditions: biotinylated double-strand DNA on streptavidin chip. The procedure: as §1, §2
The target of data set [4] is human COX2 (Homo sapiens (Human), UniProt P35354). Kind of data set: COX2 enzymatic assay. The class given is biochemical. The note with it: up to a concentration of 200 μM. As for the experimental part: COX inhibition activity was measured using COX1 and COX2 inhibitor screening assay kits from Cayman Chemical Company (Ref #701090 and 701080). All compounds were tested in quadruplicate at a single 200 μM concentration in 2% v/v final DMSO. Compounds were preincubated with ovine COX1 or human COX2 at 37° C. for 10 min before incubation with COX substrate arachidonic acid for another 3 min. Reactions were stopped by addition of concentrated hydrochloric acid. Prostanoid standard curve was prepared and enzyme immunoassay performed as per manufacturer's description. […] Prostanoid standards values were plotted as logit (B/B0) versus log concentrations and fitted with linear regression using GraphPad Prism version 6.0. Standard curve linear fit was used to calculate each samples concentrations.
Sequence of human COX2 (P35354 18-604): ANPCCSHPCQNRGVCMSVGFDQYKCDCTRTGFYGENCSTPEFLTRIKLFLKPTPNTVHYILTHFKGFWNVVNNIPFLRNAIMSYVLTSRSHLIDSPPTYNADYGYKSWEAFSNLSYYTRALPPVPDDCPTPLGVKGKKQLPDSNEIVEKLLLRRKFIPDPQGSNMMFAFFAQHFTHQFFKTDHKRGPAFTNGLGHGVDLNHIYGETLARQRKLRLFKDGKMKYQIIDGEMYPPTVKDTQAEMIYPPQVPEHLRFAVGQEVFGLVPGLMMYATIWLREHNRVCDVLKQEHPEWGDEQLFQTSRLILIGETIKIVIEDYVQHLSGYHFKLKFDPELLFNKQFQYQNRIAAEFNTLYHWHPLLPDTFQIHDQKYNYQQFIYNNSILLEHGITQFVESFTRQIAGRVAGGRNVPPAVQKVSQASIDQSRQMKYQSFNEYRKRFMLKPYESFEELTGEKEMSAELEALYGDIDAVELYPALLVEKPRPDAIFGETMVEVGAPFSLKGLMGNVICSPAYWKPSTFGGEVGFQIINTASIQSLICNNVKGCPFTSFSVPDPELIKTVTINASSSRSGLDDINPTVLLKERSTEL

Data set [5] has as its target SOX18-MEF2C interaction (Homo sapiens (Human), UniProt P35713). In words: ALPHAScreen SOX18-MEF2C protein-protein interaction. Format: binding. The note with it: read-out: SOX18-MEF2C interaction disruption IC50. The source says:
Proteins were genetically encoded with enhanced GFP (GFP), mCherry and cMyc (myc) tags, and cloned into cell free expression Gateway destination vectors: N-terminal GFP tagged (pCellFree_G03), N-terminal Cherry-cMyc (pCellFree_G07) and C-terminal Cherry-cMyc tagged (pCellFree_G08) (Gagoski et al., 2015). Human RBPJ (BC020780) and MEF2C (BC026341) Open Reading Frames (ORFs) were sourced from the Human ORFeome collection, version 1.1 and 5.1, and the Human Orfeome collaboration OCAA collection (Open Biosystems), as previously described (Sierecki et al., 2013) and cloned at the ARVEC facility, UQ Diamantina Institute. […]
ALPHAScreen was performed as previously described (Sierecki et al., 2014, Sierecki et al., 2013). […] Percentage of interaction was calculated as: (I_cpd/I_DMSO)×100 from 3 independent experiments.
ALPHAScreen was performed as previously described (Sierecki et al., 2014, Sierecki et al., 2013), using the cMyc detection kit and Proxiplate-384 Plus plates (PerkinElmer). […] The ALPHAScreen signal was measured on an Envision Plate Reader (PerkinElmer), using manufacturer's recommended settings (λexc=680/30 nm for 0.18 s, λem=570/100 nm after 37 ms). […]
I is the highest signal level (top of the hook effect curve) and Ineg is the lowest (background) signal level. […] Percentage of interaction was calculated as: […]
On the technique in general: Alpha assays give light when donor and acceptor beads are brought close together.

Data set [6] deals with HepG2. Kind of data set: Cytotoxicity assay (Alamar blue), HepG2. Format: cell-based. The note with it: HepG2, 24 h.

Structures are written as SMILES.

Sequence of SOX18-MEF2C interaction (P35713 whole entry): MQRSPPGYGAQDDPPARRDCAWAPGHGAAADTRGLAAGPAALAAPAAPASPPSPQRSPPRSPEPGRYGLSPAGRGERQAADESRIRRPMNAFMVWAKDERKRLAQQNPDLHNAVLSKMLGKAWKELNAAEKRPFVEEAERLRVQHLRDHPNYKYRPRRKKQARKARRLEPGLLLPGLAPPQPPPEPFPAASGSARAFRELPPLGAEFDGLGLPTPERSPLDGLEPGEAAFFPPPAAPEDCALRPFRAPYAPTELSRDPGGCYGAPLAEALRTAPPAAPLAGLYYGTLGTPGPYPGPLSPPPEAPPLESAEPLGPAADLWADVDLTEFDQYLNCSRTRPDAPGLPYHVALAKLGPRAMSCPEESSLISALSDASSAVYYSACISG

As for `O=C(O)c1c(O)cccc1COCCc1ccccc1` [Sm5], in data set [1], the CMC was >1000 µM. Also, in data set [2], the “binding to consensus DNA (SPR)” value is listed as “do not bind”. In addition, in data set [3], the “binding to scrambled DNA (SPR)” value is “do not bind”. Besides, the COX-2 inhibitory activity result in data set [4] is reported as “None of the SOX18 inhibitor display any COX-1 or COX-2 inhibitory activity”.
In the case of `O=C(O)c1ccccc1Nc1cccc(C(F)(F)F)c1` [Flufenamic acid, reference compound], in data set [5], the IC50 (in general, the concentration needed to halve the response being measured) amounted to 29.1 µM.
Take `CCN(CC)C(=O)c1c(O)cc(O)cc1CCc1ccc2ccccc2c1` [Sm26, N,N,diethyl-2,4-hydroxy-6-(2-(naphthalen-2-yl)ethyl)benzamide]: the CC50 (as a rule, the concentration at which the toxic effect on the cells reaches its halfway point) in data set [6] stood at 16.8 µM.

(Values after patent US20240002326A1, “COMPOUNDS AND USE THEREOF IN METHODS OF TREATMENT” (The University of Queensland, priority 2016, published 2024).)
